US5631244A, “mono(6-amino-6-deoxy)cyclodextrin derivatives substituted in the 6-position by an α-amino acid residue, process for their preparation and their uses” (L'Oreal, priority 1993, dated 1997)
Converted amounts (≈) assume the structure as drawn.

Test: Solubility in water of the cyclodextrin derivatives
Assay type: physicochemical

SMILES | solubility
NC(CCC(=O)NC[C@H]1O[C@@H]2O[C@H]3[C@H](O)[C@@H](O)[C@@H](O[C@H]4[C@H](O)[C@@H](O)[C@@H](O[C@H]5[C@H](O)[C@@H](O)[C@@H](O[C@H]6[C@H](O)[C@@H](O)[C@@H](O[C@H]7[C@H](O)[C@@H](O)[C@@H](O[C@H]8[C@H](O)[C@@H](O)[C@@H](O[C@H]1[C@H](O)[C@H]2O)O[C@@H]8CO)O[C@@H]7CO)O[C@@H]6CO)O[C@@H]5CO)O[C@@H]4CO)O[C@@H]3CO)C(=O)O (stereo partly drawn) [Example 1(b), mono[N-(4-amino-4-carboxybutyryl)amino]-6-deoxy-β-cyclodextrin] | > 1000 mg/mL
NC(CC(=O)NC[C@H]1O[C@@H]2O[C@H]3[C@H](O)[C@@H](O)[C@@H](O[C@H]4[C@H](O)[C@@H](O)[C@@H](O[C@H]5[C@H](O)[C@@H](O)[C@@H](O[C@H]6[C@H](O)[C@@H](O)[C@@H](O[C@H]7[C@H](O)[C@@H](O)[C@@H](O[C@H]8[C@H](O)[C@@H](O)[C@@H](O[C@H]1[C@H](O)[C@H]2O)O[C@@H]8CO)O[C@@H]7CO)O[C@@H]6CO)O[C@@H]5CO)O[C@@H]4CO)O[C@@H]3CO)C(=O)O (stereo partly drawn) [Example 2(b), mono[N-(3-amino 3-carboxypropionyl)amino]-6-deoxy-β-cyclodextrin] | > 1000 mg/mL
NC(Cc1ccc(OCC(=O)NC[C@H]2O[C@@H]3O[C@H]4[C@H](O)[C@@H](O)[C@@H](O[C@H]5[C@H](O)[C@@H](O)[C@@H](O[C@H]6[C@H](O)[C@@H](O)[C@@H](O[C@H]7[C@H](O)[C@@H](O)[C@@H](O[C@H]8[C@H](O)[C@@H](O)[C@@H](O[C@H]9[C@H](O)[C@@H](O)[C@@H](O[C@H]2[C@H](O)[C@H]3O)O[C@@H]9CO)O[C@@H]8CO)O[C@@H]7CO)O[C@@H]6CO)O[C@@H]5CO)O[C@@H]4CO)cc1)C(=O)O (stereo partly drawn) [Example 3, mono [N-4-(2'-amino 2'-carboxy ethyl) 1-(phenyloxymethylcarbonyl)amino]6-deoxy β-cyclodextrin] | 900 mg/mL (≈ 664 mM)
